Experimental data as given in patent US20220323443A1, “COMBINATION THERAPY FOR CANCER TREATMENT” (TAKEDA PHARMACEUTICAL COMPANY LIMITED, priority 2019, published 2022).
Counter-ions that a name gives are not always drawn. Like-named read-outs stand apart in the source and are kept apart here. *1 amine or outer side, *2 acyl side, *3 side chain or, on linkers, in order; H or OH if unused. Where a SMILES comes first, the peptide text is derived from it. Bridges are numbered along the chain shown (N, C = ends). Roman numbers before positions name the chains, in order. [ ]: non-standard residue; d: D form. Actinocin(9to1) = Cc1c2oc3c(C)ccc(C(=O)[*:1])c3nc-2c(C(=O)[*:2])c(N)c1=O; NMeV = CN[C@H](C(=O)O)C(C)C; Sar = CNCC(=O)O

How the values were obtained:
Test in all cases: In vitro combination study with Compound 1, Cell Titer-Glo (ATP) cell viability, 72 h;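 as to Call, anti-proliferative effect of combination with Compound 1, A549: Ten-by-ten dose matrices of the two agents in duplicate, compounds added 16 h post-plating, activity relative to DMSO vehicle wells, call reflects synergy evaluation from luminescence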;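 as to Call, anti-proliferative effect of combination with Compound 1, COLO205: Ten-by-ten dose matrices of both agents in duplicate plus single-agent dilutions, luminescent ATP read-out, percent activity per well relative to DMSO vehicle wells, synergy call from these matrices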;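 as to Call, anti-proliferative effect of combination with Compound 1, H460: Ten-by-ten dose matrices of both drugs alongside single-agent dilutions, luminescence read 72 hours after compound addition, percent activity per well versus vehicle (DMSO) plate controls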;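 as to Call, anti-proliferative effect of combination with Compound 1, HCT116: combination call from 10×10 dose matrices in duplicate, graded by synergy, with percent activity per well relative to DMSO vehicle controls on the same plate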;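 as to Call, anti-proliferative effect of combination with Compound 1, SW620: Ten-by-ten dose matrices of both drugs in 384-well plates, luminescent ATP read-out, synergy evaluated against single-agent and DMSO vehicle controls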
A549 cancer cells = format: cell-based
H460 cancer cells = format: cell-based; settings: 72 h
HCT116 cancer cells = format: cell-based; settings: 72 h
SW620 cancer cells = format: cell-based; settings: 72 h
COLO205 cancer cells = format: cell-based, human; settings: 72 h
Protocol: Each combination pair was evaluated in an individual 384-well plate which contained variable doses of both compounds as single agents, as well as two, ten-by-ten matrices (in duplicate) that contained mixtures of the two test compounds. In brief, compounds were added to the cell test plates 16 hours after cell plating and then assessed for viability 72 hours later. Continuous cultures of tumor cells were maintained under standard cell culturing conditions (i.e. in a humidified chamber set at 37° C., containing atmosphere 5% carbon dioxide). […] Seventy-two hours after compound addition, ATP levels were measured to assess cell viability. Plating densities were chosen to ensure optimal linear growth over the 72 hour period.
Compound dilution and compound delivery to the assay plates were done on HighRes Robotic System (HighRes Biosolutions, Woburn, Mass., USA) with Echo™ Liquid Handler (Labcyte, Sunnyvale, Calif., USA). […] Next, these were used for compound transfer into cell assay plates. All wells were back-filled to give a constant percentage of DMSO.
The final DMSO concentration was held constant in all wells across the plate and was maintained at less than 0.5%. […] Cells treated with vehicle (DMSO) in two rows, or single compound serial dilutions in one plate columns/row served as the untreated control and single compound controls, respectively.
Compound activity in A549, COLO205, H460, HCT116, SW48, SW620 cancer cell lines was assessed using Cell Titer-Glo® (Promega [Madison, Wis., USA]). After 72 hours incubation, the plates were treated as per package insert protocol for the Promega Luminescence ATP Detection Systems. Briefly, 25 μL of cell lysis/substrate solution (provided in kit form) was added to each well and the plate was incubated at room temperature for 10 minutes. Luminescence was measured using a PHERAstar multi-label counter (BMG Labtech [Ortenberg, Germany]) or LEADseeker (GE Healthcare Life Sciences [Piscataway, N.J., USA]).
Numerical luminescence values were analyzed to generate EC50 curves and evaluate synergy. Raw Data reader files were uploaded along with automation workfiles that defined the plate and well contents. Percent activities were calculated for each well versus plate controls.
Each plate representing a single drug combination was analyzed separately. First, the viability measurements were normalized by scaling the data so that the median of the negative controls was 0 and the median of the positive controls was 100.
For the combination analysis, a response surface model was used to describe the relationship between the normalized viability and the drug concentrations. The data were fit to the model by minimizing the residual sum of squares. Based on the fitted response surface, plots of constant viability, called isobolograms, were produced.
The Combination Index and Nonlinear Blending were used as measures of drug synergy. To calculate Combination Index the 50% isobologram (which is the dose contour that has 50% viability) was used. […] A standard procedure was created to produce a call in order to characterize the viability effects for each combination (synergy, additivity, subadditivity, or antagonism). If the Combination Index existed then these measures were used to make the call.

[1] = DNA damaging agent combined with Compound 1
[2] = Table 5 drug combined with Compound 1
[3] = Table 5 drug combined with Compound 1, 72 h

SMILES	Call, anti-proliferative effect of combination with Compound 1, A549 (A549 cancer cells)	Call, anti-proliferative effect of combination with Compound 1, H460 (H460 cancer cells; [1])	Call, anti-proliferative effect of combination with Compound 1, HCT116 (HCT116 cancer cells; [1])	Call, anti-proliferative effect of combination with Compound 1, SW620 (SW620 cancer cells; [1])	Call, anti-proliferative effect of combination with Compound 1, COLO205 (COLO205 cancer cells; [1])	Call, anti-proliferative effect of combination with Compound 1, H460 (H460 cancer cells; [2])	Call, anti-proliferative effect of combination with Compound 1, HCT116 (HCT116 cancer cells; [2])	Call, anti-proliferative effect of combination with Compound 1, SW620 (SW620 cancer cells; [2])	Call, anti-proliferative effect of combination with Compound 1, COLO205 (COLO205 cancer cells; [2])	Call, anti-proliferative effect of combination with Compound 1, A549 (A549 cancer cells; [3])	Call, anti-proliferative effect of combination with Compound 1, A549 (A549 cancer cells; DNA damaging agent combined with Compound 1, 72 h)
C[C@@]1(CO)[C@H](O)CC[C@@]2(C)[C@H]1CC[C@H]1C[C@@H]3C[C@@]12CC[C@]3(O)COC(=O)CN.Cl [Aphidicolin glycinate]	Additivity (key: Inconclusive: Any; Additivity: 0.7 to 1.3; Synergy: 0 to 0.7; Subadditivity: 1.3 to 2; Antagonism: >2)	Additivity (0.7 to 1.3)	Synergy (0 to 0.7)	Additivity (0.7 to 1.3)	Additivity (0.7 to 1.3)						
Cc1c2oc3c(C)ccc(C(=O)N[C@@H]4C(=O)N[C@H](C(C)C)C(=O)N5CCC[C@H]5C(=O)N(C)CC(=O)N(C)[C@@H](C(C)C)C(=O)O[C@@H]4C)c3nc-2c(C(=O)N[C@@H]2C(=O)N[C@H](C(C)C)C(=O)N3CCC[C@H]3C(=O)N(C)CC(=O)N(C)[C@@H](C(C)C)C(=O)O[C@@H]2C)c(N)c1=O [Dactinomycin] (I: T[dV]P[Sar][NMeV] / II: T[dV]P[Sar][NMeV]; ester I:1-I:C, II:1-II:C; linker I:N-II:N via Actinocin(9to1))	Additivity (key: Inconclusive: Any; Additivity: 0.7 to 1.3; Synergy: 0 to 0.7; Subadditivity: 1.3 to 2; Antagonism: >2)	Additivity (0.7 to 1.3)	Additivity (0.7 to 1.3)	Additivity (0.7 to 1.3)	Additivity (0.7 to 1.3)						
CO/C1=C\C(C)=C\[C@@H](C)[C@@H](O)[C@@H](C)C/C(C)=C/C=C/[C@H](OC)[C@@H]([C@@H](C)[C@@H](O)[C@H](C)[C@@]2(O)C[C@@H](O)[C@H](C)[C@@H](C(C)C)O2)OC1=O [Bafilomycin A]	Additivity (key: Inconclusive: Any; Additivity: 0.7 to 1.3; Synergy: 0 to 0.7; Subadditivity: 1.3 to 2; Antagonism: >2)					Additivity (0.7 to 1.3)	Additivity (0.7 to 1.3)	Additivity (0.7 to 1.3)	Subadditivity (1.3 to 2)		
CN1CC[C@H](c2c(O)cc(O)c3c(=O)cc(-c4ccccc4Cl)oc23)[C@H](O)C1 [Flavopiridol]						Additivity (0.7 to 1.3)					
CN1CC[C@H](c2c(O)cc(O)c3c(=O)cc(-c4ccccc4Cl)oc23)[C@H](O)C1 [Alvocidib]							Additivity (0.7 to 1.3)	Subadditivity (1.3 to 2)	Additivity (0.7 to 1.3)	Additivity (0.7 to 1.3)	
CO[C@H]1/C=C\C=C(/C)C(=O)NC2=CC(=O)C(NCCN(C)C)=C(C[C@@H](C)C[C@H](OC)[C@H](O)[C@@H](C)/C=C(\C)[C@@H]1OC(N)=O)C2=O [Compound 17-DMAG]						Additivity (0.7 to 1.3)	Additivity (0.7 to 1.3)	Additivity (0.7 to 1.3)	Additivity (0.7 to 1.3)	Subadditivity (1.3 to 2)	
S=c1nc[nH]c2nc[nH]c12 [Mercaptopurine]		Additivity (0.7 to 1.3)	Additivity (0.7 to 1.3)	Subadditivity (1.3 to 2)	Additivity (0.7 to 1.3)						
CO[C@@H]1[C@H](N(C)C(=O)c2ccccc2)C[C@H]2O[C@]1(C)n1c3ccccc3c3c4c(c5c6ccccc6n2c5c31)C(=O)NC4 [PKC412]						Antagonism (>2)	_Additivity	Additivity (0.7 to 1.3)	Subadditivity (1.3 to 2)		
CN(C)/N=N/c1[nH]cnc1C(N)=O [Dacarbazine]			Additivity (0.7 to 1.3)								
CCCS(=O)(=O)Nc1ccc(F)c(C(=O)c2c[nH]c3ncc(-c4ccc(Cl)cc4)cc23)c1F [PLX4032]						Additivity (0.7 to 1.3)	Additivity (0.7 to 1.3)		Additivity (0.7 to 1.3)	Additivity (0.7 to 1.3)	
COc1cccc2c1C(=O)c1c(O)c3c(c(O)c1C2=O)C[C@@](O)(C(=O)CO)C[C@@H]3O[C@H]1C[C@H](N)[C@H](O)[C@H](C)O1 [Doxorubicin hydrochloride]		Synergy (0 to 0.7)	Subadditivity (1.3 to 2)	Additivity (0.7 to 1.3)	Synergy (0 to 0.7)						Synergy (0 to 0.7)
